# Source: the supplement of paper PMC11208160
# Experiment: recombinant barcode read abundance after kanamycin selection (control-corrected) (log10(CPM+1)); higher = more efficient recombination; sequences stand for … in AGTGCAGAGAAAATCGGCCAGTTTTCTCTGCCTGCAGTCCGCATGCCGT…AGATTTATGCAGCGGACTGCCTTTCTCCCAAAGTGATAAACCGGACAGTATCATGGACCGGTTTTCCCGGTAATCCGTATTTGCAAGGTTGGTTTCACT; site = the 11-nt target
# Procedure, shortened: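 A vector carrying a T7-inducible recombinase and the last 73 bp of the bridge RNA received, by Gibson cloning, oligos encoding a promoter, target, barcode and the first 104 bridge RNA bases under J23119. The pooled constructs entered E. coli together with a donor plasmid by electroporation. Selection used chloramphenicol/ampicillin/kanamycin with 0.1 mM IPTG, with chloramphenicol/ampicillin LB agar as the control, each in two replicates. Recombination efficiency is the averaged, control-corrected counts-per-million of barcodes at recombinant junctions, reported as log10(CPM+1).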
# 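Further: IS621 recombinase and bridge RNA in Escherichia coli cells.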
row,Sequence,recombinant barcode read abundance (log10)
1,GGGTAAACTTGGGTTCTAACCTGTTGCCT (site GGGTAATCTAG),0.702
2,GGGTAACCTTGGGTTCTAACCTGTTGCCT (site AGGTAACCTAG),0
3,GGGTAACCTTGGGTTCTAACCTGTTGCCT (site CGGTAACCTAG),0.064
4,GGGTAACCTTGGGTTCTAACCTGTTGCCT (site GGGTAACCTAG),0.406
5,GGGTAACCTTGGGTTCTAACCTGTTGCCT (site TGGTAACCTAG),0.19
6,GGGTCCACTTGGGTTCTAACCTGTTGCCA (site GGGTCCACTCC),0.127
7,GGGTCCACTTGGGTTCTAACCTGTTGCCA (site GGGTCCACTTG),1.44
8,GGGTCCTCTTGGGTTCTAACCTGTTGCCA (site GGGTCCTCTAG),1.69
9,GGGTCCTCTTGGGTTCTAACCTGTTGCCA (site GGGTCCTCTCG),0.29
10,GGGTCCTCTTGGGTTCTAACCTGTTGCCA (site GGGTCCTCTGG),0.0677
11,GGGTCCTCTTGGGTTCTAACCTGTTGCCA (site GGGTCCTCTTG),1.29
12,GGGTCCTCTTGGGTTCTAACCTGTTGCCT (site GGGTCCTCTAG),2.24
13,GGGTCCTCTTGGGTTCTAACCTGTTGCCT (site GGGTCCTCTCG),0.776
14,GGGTCCTCTTGGGTTCTAACCTGTTGCCT (site GGGTCCTCTGG),0.578
15,GGGTCCTCTTGGGTTCTAACCTGTTGCCT (site GGGTCCTCTTG),0.155
16,GGGTCGGCTTGGGTTCTAACCTGTTGCGA (site GGGTCGGCTAC),0.231
17,GGGTCGGCTTGGGTTCTAACCTGTTGCGA (site GGGTCGGCTCC),0.552
18,GGGTCGGCTTGGGTTCTAACCTGTTGCGA (site GGGTCGGCTGC),0.179
19,GGGTCGGCTTGGGTTCTAACCTGTTGCGA (site GGGTCGGCTTC),2.27
20,GGTAAAGCTTGGGTTCTAACCTGTTGCCT (site GGTAAAGCTAG),0.71
21,GGTAAAGCTTGGGTTCTAACCTGTTGCCT (site GGTATAGCTAG),0.216
22,GGTAATACTTGGGTTCTAACCTGTTGCAT (site AACGTACCTTG),0.191

row,Sequence,recombinant barcode read abundance (log10)
1,GGTAATACTTGGGTTCTAACCTGTTGCAT (site GGTAATACTAT),0.957
2,GGTACGCCTTGGGTTCTAACCTGTTGCAT (site GGTACGACTCT),0.17
3,GGTACGCCTTGGGTTCTAACCTGTTGCAT (site GGTACGCCTAT),0.685
4,GGTAGGACTTGGGTTCTAACCTGTTGCCT (site AGTAGGACTAG),0.239
5,GGTAGGACTTGGGTTCTAACCTGTTGCCT (site CGTAGGACTAG),0.0936
6,GGTAGGACTTGGGTTCTAACCTGTTGCCT (site GGTAGGACTAG),0.278
7,GGTAGGACTTGGGTTCTAACCTGTTGCCT (site TGTAGGACTAG),0.0335
8,GGTATGACTTGGGTTCTAACCTGTTGCCT (site AGTATGACTAG),0.595
9,GGTATGACTTGGGTTCTAACCTGTTGCCT (site CGTATGACTAG),0.197
10,GGTATGACTTGGGTTCTAACCTGTTGCCT (site GGTATGACTAG),0.956
11,GGTATGACTTGGGTTCTAACCTGTTGCCT (site TGTATGACTAG),0.0723
12,GGTATGTCTTGGGTTCTAACCTGTTGCCT (site AGTATGTCTAG),0.204
13,GGTATGTCTTGGGTTCTAACCTGTTGCCT (site CGTATGTCTAG),0.0446
14,GGTATGTCTTGGGTTCTAACCTGTTGCCT (site GGTATGTCTAG),1.96
15,GGTATGTCTTGGGTTCTAACCTGTTGCCT (site TGTATGTCTAG),0.106
16,GGTCATTCTTGGGTTCTAACCTGTTGCCT (site GGTCATACTAG),0.0311
17,GGTCATTCTTGGGTTCTAACCTGTTGCCT (site GGTCATCCTAG),0.157
18,GGTCATTCTTGGGTTCTAACCTGTTGCCT (site GGTCATGCTAG),0.0124
19,GGTCATTCTTGGGTTCTAACCTGTTGCCT (site GGTCATTCTAG),0.626
20,GGTCGGACTTGGGTTCTAACCTGTTGCCA (site GGACGGACTTG),0.281
21,GGTCGGACTTGGGTTCTAACCTGTTGCCA (site GGTCGGACTTG),0.548
22,GGTCGGACTTGGGTTCTAACCTGTTGCGT (site GGAGGGACTAC),0.0819

row,Sequence,recombinant barcode read abundance (log10)
1,GGTCGGACTTGGGTTCTAACCTGTTGCGT (site GGTCGGACTAC),2.17
2,GGTCGTACTTGGGTTCTAACCTGTTGCCT (site CCGTTGTCTTA),0.177
3,GGTCGTACTTGGGTTCTAACCTGTTGCCT (site GGTCGTACTAG),0.286
4,GGTGAGCCTTGGGTTCTAACCTGTTGCGT (site CACACTACTCA),0.0427
5,GGTGAGCCTTGGGTTCTAACCTGTTGCGT (site GGTGAGCCTAC),2.68
6,GGTGCCTCTTGGGTTCTAACCTGTTGCAT (site GGGGCCTCTCT),0.258
7,GGTGCCTCTTGGGTTCTAACCTGTTGCAT (site GGTGCCTCTAT),1.46
8,GGTGCGGCTTGGGTTCTAACCTGTTGCCT (site AGTGCGGCTAG),0.492
9,GGTGCGGCTTGGGTTCTAACCTGTTGCCT (site CGTGCGGCTAG),0.139
10,GGTGCGGCTTGGGTTCTAACCTGTTGCCT (site GGTGCGGCTAG),0.494
11,GGTGCGGCTTGGGTTCTAACCTGTTGCCT (site TGTGCGGCTAG),0.505
12,GGTGGATCTTGGGTTCTAACCTGTTGCCT (site GGTGACTCTAG),0.0125
13,GGTGGATCTTGGGTTCTAACCTGTTGCCT (site GGTGGATCTAG),0.813
14,GGTGGCTCTTGGGTTCTAACCTGTTGCCA (site GGTGGCTCTTG),0.607
15,GGTGGCTCTTGGGTTCTAACCTGTTGCCA (site TAATCTCCTAC),0.0407
16,GGTGGGTCTTGGGTTCTAACCTGTTGCAT (site GGTGGGTCTAA),0.345
17,GGTGGGTCTTGGGTTCTAACCTGTTGCAT (site GGTGGGTCTAC),0.128
18,GGTGGGTCTTGGGTTCTAACCTGTTGCAT (site GGTGGGTCTAG),0.805
19,GGTGGGTCTTGGGTTCTAACCTGTTGCAT (site GGTGGGTCTAT),2.25
20,GGTGGGTCTTGGGTTCTAACCTGTTGCCT (site GGTGGGTCTAA),0.123
21,GGTGGGTCTTGGGTTCTAACCTGTTGCCT (site GGTGGGTCTAC),0.123
22,GGTGGGTCTTGGGTTCTAACCTGTTGCCT (site GGTGGGTCTAG),1.29
